For 1 compound, TGI results are on record in PubChem BioAssay (NCI).

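Method: 48-hour compound exposure of cells in 96-well plates, five concentrations, linear interpolation of endpoints. TGI denotes the concentration required for complete inhibition of growth.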

Test systems include HT29 colon; OVCAR-8 ovarian; MDA-MB-435; SNB-75 CNS; MDA-N; SK-MEL-28 melanoma; KM12 colon; COLO 205 colon; OVCAR-3 ovarian; MDA-MB-231 breast.
Assay in all cases: growth of human tumour cells (NCI), 48 h

`OC1(c2ccc(Cl)cc2)c2ccccc2C2=NCc3ccccc3CN21` (stereo not given): the TGI in the experiment on HT29 colon was determined as 27.8 µM; in the experiment on OVCAR-8 ovarian, 24.8 µM; in the experiment on MDA-MB-435, 22.7 µM; in the experiment on SNB-75 CNS, 19.4 µM; with MDA-N it was 26.5 µM; in the experiment with SK-MEL-28 melanoma it was 9.58 µM. Besides, the TGI in the experiment on KM12 colon came to 11.6 µM; in the experiment on COLO 205 colon, 19 µM; in the experiment with OVCAR-3 ovarian it was 6.33 µM; in the experiment on MDA-MB-231 breast, 37.9 µM.
